Data taken from patent US20250027130A1, “Nucleic Acid Synthesis and Sequencing Using Tethered Nucleoside Triphosphates” (The Regents of the University of California, priority 2022, published 2025).
Entries after “also recorded” stand apart in the source; their conditions may differ.

Columns and labels:
[1] = test system: DH10B cells co-expressing MaFRSA; test: In vivo incorporation at position 200 of sfGFP, MaFRSA (intact mass, GluC LC-MS/MS); format: cell-based, E. coli
[2] = test system: MaPylRS; test: RNAse A/LC-HRMS assay of Ma-tRNA^Pyl acylation by MaPylRS; format: biochemical, Methanomethylophilus alvus; conditions: some statements also rest on intact tRNA analysis
[3] = test system: MaFRSA (N166A, V168A); test: RNAse A/LC-HRMS assay of Ma-tRNA^Pyl acylation by MaFRSA; format: biochemical, Methanomethylophilus alvus; conditions: RNAse A/LC-HRMS and intact tRNA analysis
[4] = test system: MaFRS1 (N166A, V168L); test: RNAse A/LC-HRMS assay of Ma-tRNA^Pyl acylation by MaFRS1; format: biochemical, Methanomethylophilus alvus; conditions: some statements also rest on intact tRNA analysis
[5] = test system: MaFRS2 (N166A, V168K); test: RNAse A/LC-HRMS assay of Ma-tRNA^Pyl acylation by MaFRS2; format: biochemical, Methanomethylophilus alvus; conditions: some statements also rest on intact tRNA analysis
[6] = test system: MaFRS1 (N166A, V168L); test: Intact tRNA mass spectrometry: acylation of Ma-tRNA^Pyl by MaFRS1; format: biochemical, Methanomethylophilus alvus; conditions: MaFRS1 2.5 μM, Ma-tRNA^Pyl 25 μM, 37° C., 2 h; average of 3 technical replicates
[7] = test system: MaFRS2 (N166A, V168K); test: Intact tRNA mass spectrometry: acylation of Ma-tRNA^Pyl by MaFRS2; format: biochemical, Methanomethylophilus alvus; conditions: MaFRS2 2.5 μM, Ma-tRNA^Pyl 25 μM, 37° C., 2 h; average of 3 technical replicates
[8] = test system: MaFRSA (N166A, V168A); test: Intact tRNA mass spectrometry: acylation of Ma-tRNA^Pyl by MaFRSA; format: biochemical, Methanomethylophilus alvus; conditions: for Yield of diacylated Ma-tRNA^Pyl / Yield of monoacylated Ma-tRNA^Pyl: MaFRSA 2.5 μM, Ma-tRNA^Pyl 25 μM, 37° C., 2 h, average of 3 technical replicates
[9] = test system: MaFRSA; test: Malachite green assay to monitor adenylation by MaFRSA; format: biochemical, Methanomethylophilus alvus
Procedure: Malachite green assay to monitor adenylation. Enzymatic adenylation reactions were monitored using malachite green using a previous protocol with modifications^52. Each adenylation reaction (60 μL) contained the following components: 200 mM HEPES-K (pH 7.5), 4 mM DTT, 10 mM MgCl2, 0.2 mM ATP, 0-10 mM substrate, 4 U/mL E. coli inorganic pyrophosphatase (NEB), and 2.5 μM enzyme (MaFRS1 or MaFRSA). Adenylation reactions were incubated at 37° C. in a dry-air incubator. Aliquots (10 μL) were withdrawn after 0, 5, 10, 20, and 30 min and quenched upon addition to an equal volume of 20 mM EDTA (pH 8.0) on ice. Once all aliquots were withdrawn, 80 μL of Malachite Green Solution (Echelon Biosciences) was added to each aliquot and the mixture incubated at RT for 30 min. After shaking for 30 sec to remove bubbles, the absorbance at 620 nm was measured on a Synergy HTX plate reader (BioTek). The absorbance was then converted to phosphate concentration using a phosphate standard curve (0-100 μM) and plotted over time to determine turnover numbers.

[10] = samples vi-vii, DH10B, defined media lacking glutamate, 1 mM substrate

## N[C@@H](Cc1cccc(C(F)(F)F)c1)C(=O)O [Sample 20]
[1]; [10]
  sfGFP containing variant 20 at position 200: 97.14%

## CC(C)(C)OC(=O)NCCCC[C@@H](N)C(=O)O [Substrate 5, N^ε-(tert-butoxycarbonyl)-D-lysine]
[2]
  Substrate activity for MaPylRS (in words): No reactivity was detected

## N[C@@H](Cc1ccccc1)C(=O)O [Substrate 7, L-phenylalanine, reference compound]
[3]
  Substrate activity for MaFRSA (in words): low activity

## N[C@H](Cc1ccccc1)C(=O)O [Substrate 11, D-phenylalanine]
[4]
  Substrate activity for MaFRS1 (in words): no reactivity was detected
[5]
  Substrate activity for MaFRS2 (in words): no reactivity was detected

## CC(C)(C)OC(=O)NCCCCC(C(=O)O)C(=O)O [Substrate 16]
[2]
  Substrate activity for MaPylRS (in words): accepts; also recorded: measurable substrate

## Cc1cccc(CC(C(=O)O)C(=O)O)c1 [Substrate 17]
[6]
  Yield of diacylated Ma-tRNA^Pyl: 3.64%
  Yield of monoacylated Ma-tRNA^Pyl: 49.8%
[3]
  Substrate activity for MaFRSA (in words): high activity
[4]
  Substrate activity for MaFRS1 (in words): accept; also recorded: excellent substrates
[7]
  Yield of diacylated Ma-tRNA^Pyl: 0%
  Yield of monoacylated Ma-tRNA^Pyl: 52.0%
[5]
  Substrate activity for MaFRS2 (in words): accept; also recorded: excellent substrates
[8]
  Yield of diacylated Ma-tRNA^Pyl: 1.54%
  Yield of monoacylated Ma-tRNA^Pyl: 9.48%

## O=C(O)C(Cc1cccc(C(F)(F)F)c1)C(=O)O [Substrate 18]
[6]
  Yield of diacylated Ma-tRNA^Pyl: 9.24%
  Yield of monoacylated Ma-tRNA^Pyl: 59.3%
[3]
  Substrate activity for MaFRSA (in words): highest activity
[4]
  Substrate activity for MaFRS1 (in words): accept; also recorded: excellent substrates
[7]
  Yield of diacylated Ma-tRNA^Pyl: 0%
  Yield of monoacylated Ma-tRNA^Pyl: 26.1%
[9]
  Rate of adenylation as % of the rate observed for meta-CF3-L-Phe: 36%
[5]
  Substrate activity for MaFRS2 (in words): accept; also recorded: excellent substrates
[8]
  Yield of diacylated Ma-tRNA^Pyl: 0%
  Yield of monoacylated Ma-tRNA^Pyl: 31.4%
[8]; MaFRSA incubated with equal concentration (10 mM) of L-Phe 7 and meta-CF3-2-BMA 18
  Acylation product in competition of L-Phe 7 and 18: Only the acylation product of 18 and Ma-tRNA^Pyl is observed; also recorded: only the malonyl product (18-tRNA^Pyl) is observed

## O=C(O)C(Cc1cccc(Br)c1)C(=O)O [Substrate 19]
[6]
  Yield of diacylated Ma-tRNA^Pyl: 10.8%
  Yield of monoacylated Ma-tRNA^Pyl: 37.4%
[3]
  Substrate activity for MaFRSA (in words): high activity
[4]
  Substrate activity for MaFRS1 (in words): accept; also recorded: excellent substrates
[7]
  Yield of diacylated Ma-tRNA^Pyl: 0%
  Yield of monoacylated Ma-tRNA^Pyl: 32.7%
[5]
  Substrate activity for MaFRS2 (in words): accept; also recorded: excellent substrates
[8]
  Yield of diacylated Ma-tRNA^Pyl: 0%
  Yield of monoacylated Ma-tRNA^Pyl: 22.3%

## N[C@@H](Cc1cccc(C(F)(F)F)c1)C(=O)O [Substrate 20]
[1]; E. coli DH10B, 1 mM monomer, sfGFP-200TAG
  Intact mass of expressed sfGFP variant (in words): mass corresponded to the presence of a single trifluoromethyl phenylalanine side chain
[1]; [10]
  sfGFP containing variant 1 at position 200: 0.00%
  sfGFP containing variant 2 at position 200: 0.00%
  sfGFP containing variant 21 at position 200: 0.63%
  sfGFP containing variant A at position 200: 0.14%
  sfGFP containing variant F at position 200: 0.15%
  sfGFP containing variant K at position 200: 0.14%
  sfGFP containing variant Q at position 200: 0.62%
  sfGFP containing variant W at position 200: 1.02%
  sfGFP containing variant Y at position 200: 0.15%
